Reference: PubChem BioAssay (NCI)
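The compound was tested at five concentrations on cells cultured in 96-well plates, with a 48-hour exposure period. Definition used: TGI = concentration required for complete inhibition of growth.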

Tests used:
Assay in all cases: growth of human tumour cells (NCI), 48 h
MDA-MB-435 = tested on: MDA-MB-435
NCI-H460 lung = tested on: NCI-H460 lung
786-0 renal = tested on: 786-0 renal
HS 578T breast = tested on: HS 578T breast
SR leukemia = tested on: SR leukemia
SK-MEL-28 melanoma = tested on: SK-MEL-28 melanoma
SW-620 colon = tested on: SW-620 colon
MDA-MB-231 breast = tested on: MDA-MB-231 breast
DU-145 prostate = tested on: DU-145 prostate
MALME-3M melanoma = tested on: MALME-3M melanoma
OVCAR-8 ovarian = tested on: OVCAR-8 ovarian
A498 renal = tested on: A498 renal
NCI-H23 lung = tested on: NCI-H23 lung
PC-3 prostate = tested on: PC-3 prostate
ACHN renal = tested on: ACHN renal
OVCAR-3 ovarian = tested on: OVCAR-3 ovarian
HL-60(TB) leukemia = tested on: HL-60(TB) leukemia
T-47D breast = tested on: T-47D breast
HOP-62 NSCLC = tested on: HOP-62 NSCLC
HCT-15 colon = tested on: HCT-15 colon
LOX IMVI melanoma = tested on: LOX IMVI melanoma
HCC-2998 colon = tested on: HCC-2998 colon
MOLT-4 leukemia = tested on: MOLT-4 leukemia
UACC-62 melanoma = tested on: UACC-62 melanoma
SF-539 CNS = tested on: SF-539 CNS
SNB-19 CNS = tested on: SNB-19 CNS
SK-OV-3 ovarian = tested on: SK-OV-3 ovarian
UACC-257 melanoma = tested on: UACC-257 melanoma
A549 NSCLC = tested on: A549 NSCLC
SK-MEL-5 melanoma = tested on: SK-MEL-5 melanoma
MCF7 breast = tested on: MCF7 breast
NCI/ADR-RES ovarian = tested on: NCI/ADR-RES ovarian
K-562 leukemia = tested on: K-562 leukemia
CAKI-1 renal = tested on: CAKI-1 renal
SK-MEL-2 melanoma = tested on: SK-MEL-2 melanoma
EKVX NSCLC = tested on: EKVX NSCLC
HCT-116 colon = tested on: HCT-116 colon
RXF 393 renal = tested on: RXF 393 renal
SNB-75 CNS = tested on: SNB-75 CNS
NCI-H226 lung = tested on: NCI-H226 lung
BT-549 breast = tested on: BT-549 breast
SF-268 CNS = tested on: SF-268 CNS
MDA-N = tested on: MDA-N
U251 CNS = tested on: U251 CNS
COLO 205 colon = tested on: COLO 205 colon
KM12 colon = tested on: KM12 colon
M14 melanoma = tested on: M14 melanoma
CCRF-CEM leukemia = tested on: CCRF-CEM leukemia
RPMI-8226 leukemia = tested on: RPMI-8226 leukemia
OVCAR-4 ovarian = tested on: OVCAR-4 ovarian
IGROV1 ovarian = tested on: IGROV1 ovarian
SN12C renal = tested on: SN12C renal
HT29 colon = tested on: HT29 colon
NCI-H522 lung = tested on: NCI-H522 lung
OVCAR-5 ovarian = tested on: OVCAR-5 ovarian
HOP-92 NSCLC = tested on: HOP-92 NSCLC
UO-31 renal = tested on: UO-31 renal
TK-10 renal = tested on: TK-10 renal
SF-295 CNS = tested on: SF-295 CNS

Measured: TGI

CCCCCCc1cc2cc(C(=O)NCc3ccccc3)c(=N)oc2cc1O
not listed: UO-31 renal | TK-10 renal | SF-295 CNS
> 100 µM: all other assays above

O=C(CC(Cc1ccccc1)c1ccc(Oc2ccccc2)cc1)Nc1cccc(Cl)c1 (stereo not given)
49.6 µM: OVCAR-3 ovarian
26.5 µM: NCI-H522 lung
27.1 µM: ACHN renal
10.2 µM: HL-60(TB) leukemia
47.5 µM: SR leukemia
8.49 µM: T-47D breast
26.8 µM: SK-MEL-5 melanoma
16.3 µM: IGROV1 ovarian
27.2 µM: PC-3 prostate
75.9 µM: BT-549 breast
56.6 µM: SNB-75 CNS
5.51 µM: HOP-92 NSCLC
14.8 µM: UACC-62 melanoma
49.2 µM: LOX IMVI melanoma
26.3 µM: A498 renal
17.3 µM: RPMI-8226 leukemia
18.3 µM: MCF7 breast
73.2 µM: NCI-H226 lung
39.3 µM: MOLT-4 leukemia
15.4 µM: SF-295 CNS
31.8 µM: HCC-2998 colon
53.8 µM: MDA-MB-231 breast
19.3 µM: COLO 205 colon
62.8 µM: RXF 393 renal
21 µM: CCRF-CEM leukemia
13.6 µM: SK-MEL-2 melanoma
38.3 µM: NCI/ADR-RES ovarian
76.2 µM: UACC-257 melanoma
> 100 µM: all other assays above
